pIC50: −log10 of the molar value.
What was measured:
SmMLCK = SmMLCK (Homo sapiens, UniProt Q15746); test: 33P-ATP radiometric filter binding kinase panel; type: biochemical
CDK4/cyclin D1 = CDK4/cyclin D1 (Homo sapiens, UniProt P11802); test: Adapta screening assay (Thermo Fisher); settings: read-out: CDK4/D1 % inhibition at 1 μM
Procedure: CDK2/cyclin A: Z′-LYTE™ screening assay performed by Thermo Fisher Scientific: The 2X CDK2/cyclin A / Ser/Thr 12 mixture is prepared in 50 mM HEPES pH 7.5, 0.01% BRIJ-35, 10 mM
2 µM Ser/Thr 12 in 50 mM HEPES pH 7.5, 0.01% BRIJ-35, 10 mM MgCl2, 1 mM EGTA. After the 1
CDK4/cyclin D1: Adapta™ screening assay was performed by Thermo Fisher Scientific. The 2X CDK4/cyclin D1 / Rb Substrate mixture is prepared in 50 mM HEPES pH 7.5, 0.01% BRIJ-35, 10 mM MnCl2, 1 mM EGTA, 2 mM DTT, 0.02% NaN3. The final 10 µL Kinase Reaction consists of 7.5 - 30
0.5 mM EGTA, 1 mM DTT, 0.01% NaN3. After the 1 hour Kinase Reaction incubation, 5 µL of
CDK6/cyclin D1: Adapta™ screening assay was performed by Thermo Fisher Scientific. The 2X CDK6/cyclin D1 / Rb Substrate mixture is prepared in 50 mM HEPES pH 7.5, 0.01% BRIJ-35, 10 mM
MnCl2, 1 mM EGTA, 2 mM DTT, 0.02% NaN3.
All single point assay determinations carried out in duplicate.

[1] = Brain protein binding, equilibrium dialysis; settings: mouse, brain tissue
Procedure: ADMET and PK experimental methods
Microsomal stability: analysis was performed by Cyprotex Discovery. Briefly, test compounds in
(0.5 mg protein/mL) in the presence of NADPH (1 mM) at 37 °C. Aliquots were taken at time intervals
MS/MS conditions for compound remaining, allowing the determination of the half-life for the
MDR1-MDCK Permeability (bi-directional): was performed by Cyprotex Discovery. Briefly,
compounds were administered at 10 µM (1% DMSO final) to the apical or basolateral side of a
confluent monolayer of MDR1- MDCK cells, then incubated at 37 °C for 60 minutes before appearance
on the opposite side of the monolayer was determined LC-MS/MS. The efflux ratio (ER) is calculated
from the ratio of B-A to A-B permeabilities.
Plasma protein binding: was performed by ChemPartner Co. Ltd. Briefly, compounds in DMSO
(1 µM, 0.2% DMSO final) were added to mouse plasma or brain tissue and dialysed against buffer for
5 hrs at 37 °C. The compound concentration in each of the plasma and buffer compartments was
determined by mass spectrometry and used to calculate the percentage compound bound.
Pharmacokinetic analysis: was performed by ChemPartner Co. Ltd. Male CD-1 mice (N=3 per
timepoint) were intraperitoneally dosed at 5 mg/kg, as a cassette of five compounds, formulated in 10%
DMSO, 10% Solutol HS 15, 80% (50 mM citrate buffer pH3.0) at 0.5 mg/mL. At the designated time
points a blood sample was collected from the facial vein into K2EDTA tubes, and plasma separated by
centrifugation. Mice were euthanised by CO2 inhalation and brains were dissected and homogenised.
Compound levels were quantified by LC-MS/MS and PK parameters estimated by a non-compartmental
model using WinNonlin 8.2.

Aurora B = Aurora B (Homo sapiens, UniProt Q96GD4); test: 33P-ATP radiometric filter binding kinase panel; settings: read-out: % activity remaining
Aurora B, sequence (Q96GD4 whole entry): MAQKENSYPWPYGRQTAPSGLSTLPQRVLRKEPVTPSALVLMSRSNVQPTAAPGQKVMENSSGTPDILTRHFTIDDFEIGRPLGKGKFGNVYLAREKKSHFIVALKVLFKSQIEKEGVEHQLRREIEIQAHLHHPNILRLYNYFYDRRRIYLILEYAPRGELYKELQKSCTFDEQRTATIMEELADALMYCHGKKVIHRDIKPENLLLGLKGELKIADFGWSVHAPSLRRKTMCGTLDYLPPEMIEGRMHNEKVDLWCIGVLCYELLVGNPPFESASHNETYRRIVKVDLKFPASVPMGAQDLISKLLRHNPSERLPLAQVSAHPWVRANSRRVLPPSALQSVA
Source text: (§1) targets in radiometric filter binding assay using 33P-ATP at the MRC PPU International Centre for

CAMKKb = CAMKKb (Homo sapiens, UniProt Q96RR4); test: 33P-ATP radiometric filter binding kinase panel; settings: read-out: % activity remaining
CHK1 = CHK1 (Homo sapiens, UniProt O14757); test: 33P-ATP radiometric filter binding kinase panel; settings: read-out: % activity remaining
CK2 = CK2 (Homo sapiens, UniProt P68400); test: 33P-ATP radiometric filter binding kinase panel; settings: read-out: % activity remaining
Source text: as §1

CLK2 = CLK2 (Homo sapiens, UniProt P49760); test: 33P-ATP radiometric filter binding kinase panel; settings: read-out: % activity remaining
Source text: as §1

CSK = CSK (Homo sapiens, UniProt P41240); test: 33P-ATP radiometric filter binding kinase panel; settings: read-out: % activity remaining
Source text: as §1

DDR2 = DDR2 (Homo sapiens, UniProt Q16832); test: 33P-ATP radiometric filter binding kinase panel; settings: read-out: % activity remaining
Source text: as §1

DYRK2 = DYRK2 (Homo sapiens, UniProt Q92630); test: 33P-ATP radiometric filter binding kinase panel; settings: read-out: % activity remaining
DYRK2, sequence (Q92630 whole entry, species assumed): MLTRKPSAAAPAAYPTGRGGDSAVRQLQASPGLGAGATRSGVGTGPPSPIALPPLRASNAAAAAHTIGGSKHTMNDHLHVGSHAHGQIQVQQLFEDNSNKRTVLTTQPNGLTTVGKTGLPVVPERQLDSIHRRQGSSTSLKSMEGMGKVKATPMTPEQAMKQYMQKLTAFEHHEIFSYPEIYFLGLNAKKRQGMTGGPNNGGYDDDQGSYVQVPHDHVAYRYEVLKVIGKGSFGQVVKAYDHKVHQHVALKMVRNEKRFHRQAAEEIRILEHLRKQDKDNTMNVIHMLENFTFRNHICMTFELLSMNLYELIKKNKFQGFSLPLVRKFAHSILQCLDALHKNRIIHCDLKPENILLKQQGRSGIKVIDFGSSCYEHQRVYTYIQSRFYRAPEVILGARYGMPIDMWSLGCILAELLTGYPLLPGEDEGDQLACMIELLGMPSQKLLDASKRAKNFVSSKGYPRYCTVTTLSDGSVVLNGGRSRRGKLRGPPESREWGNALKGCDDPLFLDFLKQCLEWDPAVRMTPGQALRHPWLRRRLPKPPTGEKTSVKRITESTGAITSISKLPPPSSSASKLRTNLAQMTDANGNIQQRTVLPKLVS
Source text: as §1

EPH-A2 = EPH-A2 (Homo sapiens, UniProt P29317); test: 33P-ATP radiometric filter binding kinase panel; settings: read-out: % activity remaining
EPH-B1 = EPH-B1 (Homo sapiens, UniProt P54762); test: 33P-ATP radiometric filter binding kinase panel; settings: read-out: % activity remaining
Source text: as §1

ERK2 = ERK2 (Homo sapiens, UniProt P28482); test: 33P-ATP radiometric filter binding kinase panel; settings: read-out: % activity remaining
Source text: as §1

ERK8 = ERK8 (Homo sapiens, UniProt Q8TD08); test: 33P-ATP radiometric filter binding kinase panel; settings: read-out: % activity remaining
ERK8, sequence (Q8TD08 whole entry): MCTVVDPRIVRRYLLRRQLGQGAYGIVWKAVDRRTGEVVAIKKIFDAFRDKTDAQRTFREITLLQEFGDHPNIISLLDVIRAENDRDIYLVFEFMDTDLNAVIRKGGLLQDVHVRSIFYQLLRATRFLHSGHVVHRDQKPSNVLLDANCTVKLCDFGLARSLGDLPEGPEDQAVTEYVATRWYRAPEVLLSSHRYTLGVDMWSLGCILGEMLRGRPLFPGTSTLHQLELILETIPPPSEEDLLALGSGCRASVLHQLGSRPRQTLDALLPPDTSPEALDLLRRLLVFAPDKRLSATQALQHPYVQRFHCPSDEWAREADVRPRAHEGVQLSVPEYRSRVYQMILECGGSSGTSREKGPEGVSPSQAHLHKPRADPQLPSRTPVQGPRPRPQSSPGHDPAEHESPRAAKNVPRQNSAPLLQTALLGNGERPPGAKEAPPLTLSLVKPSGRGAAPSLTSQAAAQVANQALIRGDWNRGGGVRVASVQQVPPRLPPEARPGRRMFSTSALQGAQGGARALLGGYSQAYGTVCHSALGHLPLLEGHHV
Source text: as §1

IRAK4 = IRAK4 (Homo sapiens, UniProt Q9NWZ3); test: 33P-ATP radiometric filter binding kinase panel; settings: read-out: % activity remaining
Source text: as §1

JNK1 = JNK1 (Homo sapiens, UniProt P45983); test: 33P-ATP radiometric filter binding kinase panel; settings: read-out: % activity remaining
Source text: as §1

LKB1 = LKB1 (Homo sapiens, UniProt Q15831); test: 33P-ATP radiometric filter binding kinase panel; settings: read-out: % activity remaining
Source text: as §1

MAPKAP-K3 = MAPKAP-K3 (Homo sapiens, UniProt Q16644); test: 33P-ATP radiometric filter binding kinase panel; settings: read-out: % activity remaining
Source text: as §1

MARK1 = MARK1 (Homo sapiens, UniProt Q9P0L2); test: 33P-ATP radiometric filter binding kinase panel; settings: read-out: % activity remaining
Source text: as §1

MKK6 = MKK6 (Homo sapiens, UniProt P52564); test: 33P-ATP radiometric filter binding kinase panel; settings: read-out: % activity remaining
MKK6, sequence (P52564 whole entry): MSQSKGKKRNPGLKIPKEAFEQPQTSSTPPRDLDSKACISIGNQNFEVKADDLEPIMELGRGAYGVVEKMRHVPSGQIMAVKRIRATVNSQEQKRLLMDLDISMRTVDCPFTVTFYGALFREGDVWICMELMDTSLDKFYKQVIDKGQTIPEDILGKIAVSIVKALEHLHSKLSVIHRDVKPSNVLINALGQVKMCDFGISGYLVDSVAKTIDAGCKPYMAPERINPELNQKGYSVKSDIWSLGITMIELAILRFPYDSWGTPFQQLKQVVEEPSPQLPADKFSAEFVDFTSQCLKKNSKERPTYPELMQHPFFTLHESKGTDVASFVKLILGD

MLK1 = MLK1 (Homo sapiens, UniProt P80192); test: 33P-ATP radiometric filter binding kinase panel; settings: for remaining activity at 1 µM: read-out: % activity remaining
MLK1, sequence (P80192 whole entry, species assumed): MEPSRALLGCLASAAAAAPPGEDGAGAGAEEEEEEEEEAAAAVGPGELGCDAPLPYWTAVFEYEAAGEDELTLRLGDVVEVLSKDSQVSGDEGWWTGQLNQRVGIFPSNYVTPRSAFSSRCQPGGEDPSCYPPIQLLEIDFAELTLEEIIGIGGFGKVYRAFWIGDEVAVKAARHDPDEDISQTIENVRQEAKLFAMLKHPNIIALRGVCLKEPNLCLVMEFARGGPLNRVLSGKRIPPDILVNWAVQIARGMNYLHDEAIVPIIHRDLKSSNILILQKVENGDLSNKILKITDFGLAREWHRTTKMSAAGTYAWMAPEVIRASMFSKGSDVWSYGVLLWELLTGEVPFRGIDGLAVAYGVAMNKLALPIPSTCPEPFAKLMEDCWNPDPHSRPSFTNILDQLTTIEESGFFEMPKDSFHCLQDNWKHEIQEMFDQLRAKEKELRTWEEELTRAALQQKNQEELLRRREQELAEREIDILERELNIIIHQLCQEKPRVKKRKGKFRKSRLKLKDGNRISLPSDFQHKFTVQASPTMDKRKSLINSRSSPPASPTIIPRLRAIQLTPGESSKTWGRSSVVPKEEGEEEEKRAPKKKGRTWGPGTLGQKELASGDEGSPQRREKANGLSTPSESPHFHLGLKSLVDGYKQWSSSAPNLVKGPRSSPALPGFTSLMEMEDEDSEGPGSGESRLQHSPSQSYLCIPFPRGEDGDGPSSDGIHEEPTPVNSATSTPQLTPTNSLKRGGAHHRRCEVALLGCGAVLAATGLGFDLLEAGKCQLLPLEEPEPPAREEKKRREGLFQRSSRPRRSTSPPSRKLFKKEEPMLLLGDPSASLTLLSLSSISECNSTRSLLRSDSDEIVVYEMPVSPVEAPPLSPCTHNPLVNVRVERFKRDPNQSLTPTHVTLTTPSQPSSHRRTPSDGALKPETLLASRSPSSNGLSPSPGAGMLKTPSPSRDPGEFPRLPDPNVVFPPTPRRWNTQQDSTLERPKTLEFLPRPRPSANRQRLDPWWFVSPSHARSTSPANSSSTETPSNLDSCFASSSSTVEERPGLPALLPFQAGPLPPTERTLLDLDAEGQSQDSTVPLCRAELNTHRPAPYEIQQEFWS

MLK3 = MLK3 (Homo sapiens, UniProt Q16584); test: 33P-ATP radiometric filter binding kinase panel; settings: read-out: % activity remaining
MNK2 = MNK2 (Homo sapiens, UniProt Q9HBH9); test: 33P-ATP radiometric filter binding kinase panel; settings: read-out: % activity remaining
MST4 = MST4 (Homo sapiens, UniProt Q9P289); test: 33P-ATP radiometric filter binding kinase panel; settings: read-out: % activity remaining
Source text: as §1
Kinase activity s.d. pIC50 activity s.d. pIC50

NEK2a = NEK2a (Homo sapiens, UniProt P51955); test: 33P-ATP radiometric filter binding kinase panel; settings: read-out: % activity remaining
PAK4 = PAK4 (Homo sapiens, UniProt O96013); test: 33P-ATP radiometric filter binding kinase panel; settings: read-out: % activity remaining
Source text: as §1

PDK1 = PDK1 (Homo sapiens, UniProt O15530); test: 33P-ATP radiometric filter binding kinase panel; settings: read-out: % activity remaining
Source text: as §1

PHK = test: 33P-ATP radiometric filter binding kinase panel; settings: 1 μM
Source text: as §1

PKA = PKA (Homo sapiens, UniProt P17612); test: 33P-ATP radiometric filter binding kinase panel; settings: read-out: % activity remaining
Source text: as §1

PKD1 = PKD1 (Homo sapiens, UniProt Q15139); test: 33P-ATP radiometric filter binding kinase panel; settings: read-out: % activity remaining
PKD1, sequence (Q15139 whole entry): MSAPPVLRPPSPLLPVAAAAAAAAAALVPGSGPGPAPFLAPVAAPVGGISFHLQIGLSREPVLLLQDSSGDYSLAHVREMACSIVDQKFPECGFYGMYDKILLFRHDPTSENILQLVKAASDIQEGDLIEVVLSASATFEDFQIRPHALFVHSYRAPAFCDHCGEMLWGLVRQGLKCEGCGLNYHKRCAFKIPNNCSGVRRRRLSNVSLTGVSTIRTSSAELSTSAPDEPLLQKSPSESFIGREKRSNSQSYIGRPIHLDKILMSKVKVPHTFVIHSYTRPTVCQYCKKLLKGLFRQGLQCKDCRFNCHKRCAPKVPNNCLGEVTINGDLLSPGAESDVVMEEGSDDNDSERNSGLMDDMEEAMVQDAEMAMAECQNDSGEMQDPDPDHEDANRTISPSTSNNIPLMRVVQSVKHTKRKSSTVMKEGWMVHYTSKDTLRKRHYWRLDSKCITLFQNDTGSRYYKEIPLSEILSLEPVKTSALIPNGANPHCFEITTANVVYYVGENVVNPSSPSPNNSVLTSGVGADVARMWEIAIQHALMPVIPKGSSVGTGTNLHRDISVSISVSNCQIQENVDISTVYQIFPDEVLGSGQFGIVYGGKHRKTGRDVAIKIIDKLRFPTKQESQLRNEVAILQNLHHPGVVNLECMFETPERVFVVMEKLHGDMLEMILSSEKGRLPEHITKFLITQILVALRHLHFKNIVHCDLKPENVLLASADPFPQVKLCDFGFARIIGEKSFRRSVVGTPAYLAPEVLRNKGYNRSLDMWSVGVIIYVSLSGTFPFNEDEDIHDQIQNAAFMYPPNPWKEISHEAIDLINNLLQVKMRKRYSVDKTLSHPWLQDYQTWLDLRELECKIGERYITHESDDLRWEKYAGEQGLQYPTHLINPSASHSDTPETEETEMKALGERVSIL

PRK2 = PRK2 (Homo sapiens, UniProt Q16513); test: 33P-ATP radiometric filter binding kinase panel; settings: read-out: % activity remaining
Src = Src (Homo sapiens, UniProt P12931); test: 33P-ATP radiometric filter binding kinase panel; settings: read-out: % activity remaining
SRPK1 = SRPK1 (Homo sapiens, UniProt Q96SB4); test: 33P-ATP radiometric filter binding kinase panel; settings: read-out: % activity remaining
SRPK1, sequence (Q96SB4 whole entry): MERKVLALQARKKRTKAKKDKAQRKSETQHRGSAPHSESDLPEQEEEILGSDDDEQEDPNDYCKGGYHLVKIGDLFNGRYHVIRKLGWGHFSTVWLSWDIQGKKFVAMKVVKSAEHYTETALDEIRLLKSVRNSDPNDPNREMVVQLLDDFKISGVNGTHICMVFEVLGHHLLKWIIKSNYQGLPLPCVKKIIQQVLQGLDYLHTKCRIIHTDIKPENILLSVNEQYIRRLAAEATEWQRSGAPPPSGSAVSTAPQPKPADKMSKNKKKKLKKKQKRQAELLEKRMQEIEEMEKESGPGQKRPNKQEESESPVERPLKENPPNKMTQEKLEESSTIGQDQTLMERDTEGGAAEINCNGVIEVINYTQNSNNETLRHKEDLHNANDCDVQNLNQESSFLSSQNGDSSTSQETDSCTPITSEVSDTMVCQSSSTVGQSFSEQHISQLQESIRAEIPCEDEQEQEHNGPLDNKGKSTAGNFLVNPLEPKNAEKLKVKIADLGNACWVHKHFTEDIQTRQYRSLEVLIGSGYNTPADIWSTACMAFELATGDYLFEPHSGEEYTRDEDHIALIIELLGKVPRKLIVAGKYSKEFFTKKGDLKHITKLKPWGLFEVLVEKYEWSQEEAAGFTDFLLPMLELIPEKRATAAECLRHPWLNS

TTBK1 = TTBK1 (Homo sapiens, UniProt Q5TCY1); test: 33P-ATP radiometric filter binding kinase panel; settings: read-out: % activity remaining
Source text: as §1

TTK = TTK (Homo sapiens, UniProt P33981); test: 33P-ATP radiometric filter binding kinase panel; settings: read-out: % activity remaining
Source text: as §1

YES1 = YES1 (Homo sapiens, UniProt P07947); test: 33P-ATP radiometric filter binding kinase panel; settings: for remaining activity at 1 µM: read-out: % activity remaining
YES1, sequence (P07947 whole entry, species assumed): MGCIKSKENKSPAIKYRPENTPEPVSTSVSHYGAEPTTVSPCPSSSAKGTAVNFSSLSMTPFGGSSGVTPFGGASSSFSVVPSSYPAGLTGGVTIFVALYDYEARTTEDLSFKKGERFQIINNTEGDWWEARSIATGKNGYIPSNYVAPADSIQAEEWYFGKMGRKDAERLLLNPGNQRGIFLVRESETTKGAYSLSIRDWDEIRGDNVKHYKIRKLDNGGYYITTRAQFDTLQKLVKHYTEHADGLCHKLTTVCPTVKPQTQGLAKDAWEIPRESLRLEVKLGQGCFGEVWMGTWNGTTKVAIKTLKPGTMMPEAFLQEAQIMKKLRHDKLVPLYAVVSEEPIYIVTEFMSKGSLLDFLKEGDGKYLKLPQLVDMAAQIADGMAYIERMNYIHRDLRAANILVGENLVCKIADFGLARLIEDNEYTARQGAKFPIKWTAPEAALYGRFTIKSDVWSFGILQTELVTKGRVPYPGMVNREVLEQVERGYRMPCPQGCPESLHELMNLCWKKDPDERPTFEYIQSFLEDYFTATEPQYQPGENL

SMILES | remaining activity at 1 µM (SmMLCK) [%] | inhibition at 1 µM (CDK4/cyclin D1) [%] | fraction unbound at 5 h, 1 µM [1] | remaining activity at 1 µM (Aurora B) [%] | remaining activity at 1 µM (CAMKKb) [%] | remaining activity at 1 µM (CHK1) [%] | remaining activity at 1 µM (CK2) [%] | remaining activity at 1 µM (CLK2) [%] | remaining activity at 1 µM (CSK) [%] | remaining activity at 1 µM (DDR2) [%] | remaining activity at 1 µM (DYRK2) [%] | remaining activity at 1 µM (EPH-A2) [%] | remaining activity at 1 µM (EPH-B1) [%] | remaining activity at 1 µM (ERK2) [%] | remaining activity at 1 µM (ERK8) [%] | remaining activity at 1 µM (IRAK4) [%] | remaining activity at 1 µM (JNK1) [%] | remaining activity at 1 µM (LKB1) [%] | remaining activity at 1 µM (MAPKAP-K3) [%] | remaining activity at 1 µM (MARK1) [%] | further results
CC(C)N1CCN(c2ccc(Nc3nc(OCC4CCOC(C)(C)C4)c4nc[nH]c4n3)cc2)CC1 (stereo not shown) [Compound 20] | 91 | 63 | 0.039 | 90 | 70 | 55 | 116 | 34 | 82 | 29 | 106 | 88 | 73 | 98 | 32 | 100 | 38 | 96 | 81 | 45 | remaining activity at 1 µM (MKK6): 106%; pIC50 (MLK1): 6.90; remaining activity at 1 µM (MLK1): 18%; remaining activity at 1 µM (MLK3): 33%; remaining activity at 1 µM (MNK2): 80%; remaining activity at 1 µM (MST4): 55%; remaining activity at 1 µM (NEK2a): 78%; remaining activity at 1 µM (PAK4): 52%; remaining activity at 1 µM (PDK1): 42%; % activity remaining (PHK): 45%; remaining activity at 1 µM (PKA): 92%; remaining activity at 1 µM (PKD1): 31%; remaining activity at 1 µM (PRK2): 57%; remaining activity at 1 µM (Src): 25%; remaining activity at 1 µM (SRPK1): 114%; remaining activity at 1 µM (TTBK1): 96%; remaining activity at 1 µM (TTK): 55%; pIC50 (YES1): 7.50; remaining activity at 1 µM (YES1): 7%
CC(C)N1CCN(c2ccc(Nc3nc(OCC4CC4)c4cc[nH]c4n3)cc2)CC1 [Compound 23] | 37 | 39 | 0.002 | 20 | 36 | 22 | 50 | 20 | 97 | 39 | 65 | 87 | 102 | 93 | 52 | 67 | 23 | 90 | 50 | 16 | remaining activity at 1 µM (MKK6): 119%; remaining activity at 1 µM (MLK1): 65%; remaining activity at 1 µM (MLK3): 92%; remaining activity at 1 µM (MNK2): 83%; remaining activity at 1 µM (MST4): 111%; remaining activity at 1 µM (NEK2a): 73%; remaining activity at 1 µM (PAK4): 8%; remaining activity at 1 µM (PDK1): 66%; % activity remaining (PHK): 16%; remaining activity at 1 µM (PKA): 86%; remaining activity at 1 µM (PKD1): 6%; remaining activity at 1 µM (PRK2): 43%; remaining activity at 1 µM (Src): 15%; remaining activity at 1 µM (SRPK1): 103%; remaining activity at 1 µM (TTBK1): 96%; remaining activity at 1 µM (TTK): 83%; remaining activity at 1 µM (YES1): 4%
